Laboratory results reported in patent US7439250B2, “Compositions and methods related to fatty amino acid derivatives” (Board of Regents, The University of Texas System, priority 2002, dated 2008).

Experiments:
[1] = pH sensitivity of liposomes: turbidity (absorbance at 400 nm) as a function of pH titration; type: physicochemical; details: samples (50 μl) in 3 ml PBS titrated with HCl; pH lowered from 4.5 to 3.5; DSPC samples extruded to 100 nm
Method: FIG. 2 illustrates the absorbance change as a function of pH titration. Samples (50 μl) in 3 ml of PBS were titrated with HCl. The pH was measured and absorbence read at 400 nm.
The DSPC MLV samples were then processed by extrusion to form liposomes with diameters of 100 nm. The pH sensitivity of the liposomes were compared by monitoring turbidity at 400 nm as a function of pH. […] This feature of ALP may be useful in certain applications where pH plays a role.

[2] = Liposome preparation by lipid film rehydration, observed by light microscopy; type: physicochemical; details: PBS pH 7.2, 55° C.
Method: Two ALPs of General Formula 1 were prepared, a) laurylaldehyde (X=O and R^1, R^2=C11H23) or b) (S,S)-(3-Octadecanoyl-6-oxo-2-undecyl-hexahydro-pyrimidine-4-carboxlic acid and tested for the ability to form liposomes and for its suitability as a component of liposomes containing phospholipids and cholesterol. Liposomes were prepared by mixing varying amounts of the phospholipid, distearoyl phosphatidylcholine (DSPC), cholesterol or ALP in chloroform. The chloroform was removed to form a thin lipid film. After vacuum desiccation overnight, each lipid formulation was rehydrated with phosphate buffered saline (PBS), pH 7.2, warmed to 55° C. (phase transition temperature of DSPC) and vortexed vigorously to form multilamellar liposomes (MLV). Aliquots of each MLV formulation were set aside and observed by light microscopy. DSPC MLV, DSPC MLV containing 10 mole % ALP, ALP lipid structures (3 mg/ml) and ALP lipid structures (30 mg/ml), respectively, were imaged.

CCCCCCCCCCCCCCCCCC(=O)N1[C@@H](CCCCCCCCCCC)NC(=O)C[C@H]1C(=O)O [ALP]
absorbance change at 400 nm as a function of pH (pH sensitivity) [1]: increased | structures formed on rehydration (light microscopy) ([2]; ALP alone at high concentrations (30 mg/ml)): crystal structures were evident | structures formed on rehydration (light microscopy) ([2]; ALP alone at low concentrations (3 mg/ml)): typically form liposomes
